Results as given in patent publication US8071568B2, “Nucleoside aryl phosphoramidates for the treatment of RNA-dependent RNA viral infection” (Merck Sharp & Dohme Corp., priority 2007, dated 2011).
Like-named read-outs stand apart in the source and are kept apart here.

Tested on: Hepatitis C Virus RNA in cultured hepatoma (HuH-7) cells containing a subgenomic HCV Replicon
Assay: Assay for inhibition of HCV RNA replication (replicon assay, in situ ribonuclease protection SPA)
Assay type: cell-based
[1] = Hepatitis C virus, Huh-7, read-out: Replicon Assay EC50
[2] = Hepatitis C virus, Huh-7, read-out: Replicon Assay EC50, first eluting diastereomer, HuH-7 subgenomic HCV replicon
[3] = Hepatitis C virus, Huh-7, read-out: Replicon Assay EC50, second eluting diastereomer, HuH-7 subgenomic HCV replicon
[4] = mixture of diastereomers tested, HuH-7 subgenomic HCV replicon, read-out: Replicon Assay EC50

Structure (SMILES) | EC50 [1] | EC50 (read-out: Replicon Assay EC50) | EC50 [2] | EC50 [3] | also measured
CCCC(=O)OC[C@H](C)NP(=O)(OC[C@H]1O[C@@H](n2ccc(N)nc2=O)[C@](C)(O)[C@@H]1O)Oc1ccccc1 (mixture of isomers) [Example 2, 5′-O-[{[(±)-2-(Butyryloxy)-1-methylethyl]-amino}-(phenoxy)-phosphoryl]-2′-C-methylcytidine] | 2800 nM | 4000 nM |  |  | 
C[C@@H](COC(=O)C(C)(C)C)NP(=O)(OC[C@H]1O[C@@H](n2ccc(N)nc2=O)[C@](C)(O)[C@@H]1O)Oc1ccccc1 (single isomer, unassigned) [Example 1] | 1600 nM | 900 nM |  |  | 
CC[C@H](C)[C@@H](COC(=O)C(C)(C)C)NP(=O)(OC[C@H]1O[C@@H](n2ccc(N)nc2=O)[C@](C)(O)[C@@H]1O)Oc1ccccc1 (single isomer, unassigned) [Example 6] | 2000 nM | 1800 nM |  |  | 
CC(C)C(=O)OC[C@H](Cc1ccccc1)NP(=O)(OC[C@H]1O[C@@H](n2ccc(N)nc2=O)[C@](C)(O)[C@@H]1O)Oc1ccccc1 (single isomer, unassigned) [Example 11] | 500 nM | 900 nM |  |  | 
CC(C)C(=O)O[C@@H](C)CNP(=O)(OC[C@H]1O[C@@H](n2ccc(N)nc2=O)[C@](C)(O)[C@@H]1O)Oc1ccccc1 (single isomer, unassigned) [Example 12] | 2200 nM | 2400 nM |  |  | 
C[C@@]1(O)[C@H](O)[C@@H](COP(=O)(NCCOC(=O)c2ccccc2)Oc2ccccc2)O[C@H]1n1ccc(N)nc1=O (single isomer, unassigned) [Example 16, cytidine, 5′-O-[[[2-(benzoyloxy)ethyl]amino]phenoxyphosphinyl]-2′-C-methyl-] |  |  | 2200 nM | 5000 nM | 
CCC(CC)C(=O)OCCNP(=O)(OC[C@H]1O[C@@H](n2ccc(N)nc2=O)[C@](C)(O)[C@@H]1O)Oc1ccccc1 (single isomer, unassigned) [Example 20, 5′-O-[({2-[(2-ethylbutanoyl)oxy]ethyl}amino)(phenoxy)phosphoryl]-2′-C-methylcytidine] |  |  | 2800 nM | 600 nM | 
C[C@@]1(O)[C@H](O)[C@@H](COP(=O)(NCCOC(=O)C2CCCCCC2)Oc2ccccc2)O[C@H]1n1ccc(N)nc1=O (single isomer, unassigned) [Example 21, 5′-O-[({2-[(cycloheptylcarbonyl)oxy]ethyl}amino)(phenoxy)phosphoryl]-2′-C-methylcytidine] |  |  | 700 nM | 1200 nM | 
CC(C)C(=O)O[C@@H]1CCN(P(=O)(OC[C@H]2O[C@@H](n3ccc(N)nc3=O)[C@](C)(O)[C@@H]2O)Oc2ccccc2)C1 (single isomer, unassigned) [Example 22] |  |  | > 5000 nM | > 5000 nM | 
CC(C)(C)C(=O)OC[C@H](Cc1ccccc1)NP(=O)(OC[C@H]1O[C@@H](n2ccc(N)nc2=O)[C@](C)(O)[C@@H]1O)Oc1ccccc1 (stereo partly drawn) [Example 8, 5′-O-[[[(1S)-2-[(2,-dimethyl-1-oxopropoxy)-1-(phenylmethyl)]-ethyl]amino]-(phenoxy)-phosphinyl]-2′-C-methylcytidine] |  |  |  |  | EC50 [4]: 1000 nM
CC1(C)O[C@@H]2[C@@H](COP(=O)(N[C@H](COC(=O)C(C)(C)C)Cc3ccccc3)Oc3ccccc3)O[C@@H](n3ccc(N)nc3=O)[C@]2(C)O1 (stereo partly drawn) [Example 14, cytidine, 5′-O-[[[(1S)-2-(2,2-dimethyl-1-oxopropoxy)-1-(phenylmethyl)ethyl]amino]phenoxyphosphinyl]-2′-C-methyl-2′,3′-O-(1-methylethylidene)-] |  |  |  |  | EC50 (first eluting diastereomer, HuH-7 subgenomic HCV replicon, read-out: Replicon Assay EC50): > 5000 nM; EC50 (second eluting diastereomer, HuH-7 subgenomic HCV replicon, read-out: Replicon Assay EC50): > 5000 nM
CCCCC(COC(=O)C(C)(C)C)NP(=O)(OCC1OC(n2ccc(N)nc2=O)C2(C)OC(C)(C)OC12)Oc1ccccc1 [Example 15, cytidine, 5′-O-[[[(1S)-1-[(2,2-dimethyl-1-oxopropoxy)methyl]pentyl]amino]phenoxyphosphinyl]-2′-C-methyl-2′,3′-O-(1-methylethylidene)-] |  |  |  |  | EC50 [4]: > 10000 nM
